Data published in patent US8846746B2, “Pyrazole compound and pharmaceutical use thereof” (Japan Tobacco Inc., priority 2011, dated 2014).

Molecular target: human SGLT1 (Homo sapiens (Human), UniProt P13866)
Experiment: SGLT1 inhibitory activity: 14C-AMG uptake into CHO-K1 cell line stably expressing human SGLT1
Type: cell-based
Conditions: 14C-AMG uptake, CHO-K1 cells expressing human SGLT1
Procedure: SGLT1 inhibitory activity of a test compound (IC50 value) was calculated based on an amount of intake into a cell of labeled α-methyl-D-glucopyranoside (^14C-AMG) which is transported by SGLT1.
1) Construction of Human SGLT1 Expression Plasmid
A DNA fragment containing human SGLT1, wherein NheI recognition and cleavage sequence was added upstream of a Kozac consensus sequence of the vector; and a stop codon (TAG) and a SalI recognition and cleavage sequence was added just downstream of a coding region of the human SGLT1, was amplified by PCR using pCMV6-hSGLT1 (OriGene) as a template. The purified DNA fragment was cleaved by restriction enzymes NheI and SalI, and the obtained fragment was ligated into pcDNA3.1 (+) which was cleaved by NheI and XhoI to construct human SGLT1 expression plasmid.
2) Establishment of Stable Cell Lines Expressing Human SGLT1
A human SGLT1 expression plasmid pcDNA-hSGLT1 was transfected into CHO-K1 cells by Lipofectamine-2000 (Invitrogen). The cells were cultured in the presence of G418 (Nakalai tesque) and drug-resistant cells were selected. A cell line having the highest S/B ratio of an amount of ^14C-AMG uptake per cell treated by solvent to an amount of ^14C-AMG uptake per cell treated by phlorizin (SGLT inhibitor) was selected from the drug-resistant cells as a stable cell lines expressing human SGLT1.
3) Evaluation of SGLT1 Inhibitory Activity
The stable cell line expressing human SGLT1 was seeded at 5×10^4 cells/well on BioCoat™ Poly-D-Lysine 96 well plate with Lid (Becton Dickinson and Company) and cultured at 37° C. under 5% CO2 overnight. The medium was replaced with 100 μL/well of a Na (−) buffer (140 mM choline chloride, 2 mM KCl, 1 mM MgCl2, 1 mM CaCl2, 10 mM HEPES, 5 mM Tris, pH7.4) followed by incubation for 20 minutes at 37° C. under 5% CO2. After removing the Na (−) buffer, a test compound solution which was prepared from Na (+) buffer (140 mM NaCl, 2 mM KCl, 1 mM MgCl2, 1 mM CaCl2, 10 mM HEPES, 5 mM Tris, pH7.4) containing BSA was added thereto at 40 μL/well. In addition, Na (+) buffer containing 8 kBq of ^14C-AMG and 2 mM AMG was added thereto at 40 μL/well, and was mixed well. Na (−) buffer containing BSA was added to a blank well at 40 μL/well and additionally adding a Na (+) buffer containing 8 kBq of ^14C-AMG and 2 mM AMG, and was mixed well. Cells were incubated for 1 hour at 37° C. under 5% CO2. After the reaction, the cells were washed twice with 100 μL/well of iced wash buffer (100 mM AMG, 140 mM choline chloride, 2 mM KCl, 1 mM MgCl2, 1 mM CaCl2, 10 mM HEPES, 5 mM Tris, pH7.4), then lysed in 50 μL/well of a 0.2N aqueous solution of NaOH. The cell lysate was transferred to OptiPlate96 (Perkin-Elmer) and 100 μL/well of MicroScint-40 (Perkin-Elmer) was dispensed. The radioactivity was counted by TOPCOUNT NXT (Perkin-Elmer).
A data was obtained by deducting the average value (CPM) of blank wells from the average value (CPM) of each treated well. The inhibition ratio (%) was calculated by the following formula: inhibition rate (%)=[(A−B)/A]×100, where A is a data of the solvent control, and B is a data of a test compound.

Chain of human SGLT1 (P13866 whole entry): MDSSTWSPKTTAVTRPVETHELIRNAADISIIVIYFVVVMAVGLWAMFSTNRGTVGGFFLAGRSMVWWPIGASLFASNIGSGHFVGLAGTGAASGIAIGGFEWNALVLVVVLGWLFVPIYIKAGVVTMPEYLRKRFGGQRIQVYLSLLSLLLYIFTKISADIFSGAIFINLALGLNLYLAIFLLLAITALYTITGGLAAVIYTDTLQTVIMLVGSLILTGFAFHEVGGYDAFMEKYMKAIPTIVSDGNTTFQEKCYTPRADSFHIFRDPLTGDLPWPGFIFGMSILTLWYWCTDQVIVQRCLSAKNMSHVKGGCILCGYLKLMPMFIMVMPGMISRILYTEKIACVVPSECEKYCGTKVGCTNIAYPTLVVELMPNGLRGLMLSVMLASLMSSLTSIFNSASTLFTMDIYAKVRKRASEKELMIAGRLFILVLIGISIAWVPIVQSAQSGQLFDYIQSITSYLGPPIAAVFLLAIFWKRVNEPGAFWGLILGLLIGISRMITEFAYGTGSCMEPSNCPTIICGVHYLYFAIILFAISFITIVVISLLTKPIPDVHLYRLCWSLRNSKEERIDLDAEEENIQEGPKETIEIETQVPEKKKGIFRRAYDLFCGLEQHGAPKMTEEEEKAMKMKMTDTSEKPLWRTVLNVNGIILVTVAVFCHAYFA

IC50 [nM]	Compound
73	CCCc1cccc(-c2cc(NC(=O)[C@@H]3CNC(=O)C3)nn2Cc2ccccc2)c1 [Example 99]
4.7	CCC(F)(F)c1cccc(-c2cc(NC(=O)[C@H]3CNC(=O)C3)nn2-c2ccccc2)c1 [Example 72]
4.3	CCCCc1cccc(-c2cc(NC(=O)[C@H]3CNC(=O)C3)nn2-c2ccccc2)c1 [Example 45]
190	CCCc1cccc(-c2cc(NC(=O)C3CNC(=O)C3)nn2C(C)(C)C)c1 (racemic) [Example 42]
11	O=C1C[C@@H](C(=O)Nc2cc(-c3cccc(OCCC(F)(F)F)c3)n(-c3ccc(Cl)cc3)n2)CN1 [Example 160]
22	CC1(C)C=C(c2cc(NC(=O)[C@H]3CNC(=O)C3)nn2-c2ccccc2)CCC1 [Example 79]
32	C[C@H]1C(=O)NC[C@@H]1C(=O)Nc1cc(-c2cccc(OC(F)(F)F)c2)n(CCC2CCOCC2)n1 [Example 232]
9.2	C[C@H]1C(=O)NC[C@@H]1C(=O)Nc1cc(-c2cccc(C(F)(F)F)c2)n(-c2cccc(F)c2)n1 [Example 209]
80	CCCc1cc(-c2cc(NC(=O)[C@@H]3CNC(=O)C3)nn2-c2ccccc2)ccc1F [Example 51]
150	CCCc1cccc(-c2cc(NC(=O)C3CC(=O)NC3C)nn2-c2ccccc2)c1 (single isomer, unassigned) [Example 20]
19	CCC(F)(F)c1cccc(-c2cc(NC(=O)C3CCC(=O)NC3)nn2-c2ccccc2)c1 (single isomer, unassigned) [Example 151]
17	CCCc1cccc(-c2cc(NC(=O)[C@@H]3CNC(=O)N3C)nn2-c2ccccc2)c1 [Example 125]
14	CCCc1cccc(-c2cc(NC(=O)[C@H]3CNC(=O)C3)nn2CCC2CCCC2)c1 [Example 137]
2	CCCc1cccc(-c2cc(NC(=O)[C@@H]3CNC(=O)C3)nn2-c2cccc(C)c2)c1 [Example 77]
20	Cc1ccc(-n2nc(NC(=O)[C@H]3CNC(=O)C3)cc2-c2cccc(OC(F)(F)F)c2)cc1 [Example 233]
20100	O=C1C[C@@H](C(=O)Nc2cc(-c3cccc(OC(F)(F)F)c3)n(-c3ccc(F)cc3F)n2)CN1 [Example 183]
7.4	CCCc1cccc(-c2cc(NC(=O)[C@@H]3CNC(=O)C3)nn2-c2ccccc2)c1 [Example 23]
15	CCCc1cccc(-c2cc(NC(=O)[C@@H]3CNC(=O)C3)nn2-c2ccc(F)cc2)c1 [Example 35]
42	O=C1C[C@@H](C(=O)Nc2cc(-c3cccc(OC(F)(F)F)c3)n(C3CCOCC3)n2)CN1 [Example 187]

Same assay, conditions: 14C-AMG uptake, CHO-K1 cells stably expressing human SGLT1

IC50 [nM]	Compound
39	CCCc1cccc(-c2cc(NC(=O)C34CNC(=O)C3C4)nn2-c2ccccc2)c1 (stereo not shown) [Example 249, 4-oxo-3-azabicyclo[3.1.0]hexane-1-carboxylic acid[1-phenyl-5-(3-propylphenyl)-1H-pyrazol-3-yl]amide]
15	CCCc1cccc(-c2cc(NC(=O)[C@@H]3CNC(=O)C3)nn2-c2cccc(OC(F)(F)F)c2)c1 [Example 400]
15	O=C1C[C@H](C(=O)Nc2cc(-c3cccc(COCC(F)(F)F)c3)n(-c3ccccc3F)n2)CN1 [Example 471]
5.7	CCCc1cccc(-c2cc(NC(=O)[C@@H]3CNC(=O)C3)nn2-c2cccc(C(C)C)c2)c1 [Example 392]
6	CCCc1cccc(-c2cc(NC(=O)[C@@H]3CNC(=O)C3)nn2-c2cccc(Cl)c2)c1 [Example 262]
36	CC(C)Oc1cccc(-n2nc(NC(=O)[C@@H]3CNC(=O)C3)cc2-c2cccc(OC(F)(F)F)c2)c1F [Example 478]
14	CC(C)(OCc1cc(Cl)cc(-c2cc(NC(=O)[C@@H]3CNC(=O)C3)nn2-c2ccccc2)c1)C(F)(F)F [Example 243, (S)-5-oxopyrrolidine-3-carboxylic acid[5-[3-chloro-5-(2,2,2-trifluoro-1,1-dimethylethoxymethyl)phenyl]-1-phenyl-1H-pyrazol-3-yl]amide]
3.7	COc1cc(-n2nc(NC(=O)[C@@H]3CNC(=O)C3)cc2-c2cccc(CO[C@H](C)C(F)(F)F)c2)ccc1F [Example 457]
7.3	O=C1C[C@H](C(=O)Nc2cc(-c3cccc(COCC(F)(F)F)c3)n(-c3ccccc3Cl)n2)CN1 [Example 474]
5.25	CCCc1cccc(-c2cc(NC(=O)[C@@H]3CNC(=O)C3)nn2-c2cccc(CC)c2)c1 [Example 393]
370	O=C1NC[C@@H](C(=O)Nc2cc(-c3cccc(OC(F)(F)F)c3)n(-c3ccccc3)n2)O1 [Example 263]
4.7	CCCc1cccc(-c2cc(NC(=O)[C@H]3CNC(=O)N3CC)nn2-c2ccccc2)c1 [Example 303]
70	CCCc1cccc(-c2cc(NC(=O)[C@@H]3CNC(=O)C3)nn2-c2cccc(CCC(C)(C)C)c2)c1 [Example 498]
17	O=C1CCC(C(=O)Nc2cc(-c3cccc(COCCC(F)(F)F)c3)n(-c3ccccc3)n2)CN1 (single isomer, unassigned) [Example 338]
18	O=C1C[C@H](C(=O)Nc2cc(-c3cc(F)cc(COCC(F)(F)F)c3)n(-c3ccccc3)n2)CN1 [Example 488]
2.1	COc1cc(F)cc(-n2nc(NC(=O)[C@@H]3CNC(=O)C3)cc2-c2cccc(CO[C@H](C)C(F)(F)F)c2)c1 [Example 533]
59	COCCOc1cccc(-n2nc(NC(=O)[C@@H]3CNC(=O)C3)cc2-c2cccc(COCC(F)(F)F)c2)c1F [Example 483]
1.5	CCCc1cccc(-c2cc(NC(=O)C3CCS(=O)(=O)CC3)nn2-c2ccccc2)c1 [Example 302]
81	O=C1C[C@H](C(=O)Nc2cc(-c3cccc(OC(F)(F)F)c3)n(-c3ccc(F)cc3)n2)CN1 [Example 502]
7.9	CCCc1cccc(-c2cc(NC(=O)[C@@H]3CNC(=O)N3CCOC)nn2-c2ccccc2)c1 [Example 345]
32	O=C1NC[C@H](C(=O)Nc2cc(-c3cccc(COCCC(F)(F)F)c3)n(-c3ccccc3)n2)O1 [Example 337]
33	CC(C)OCc1cccc(-c2cc(NC(=O)[C@@H]3CNC(=O)C3)nn2-c2ccccc2)c1 [Example 299]
9	C[C@@H](OCc1cccc(-c2cc(NC(=O)[C@@H]3CNC(=O)C3)nn2-c2cccc(O)c2)c1)C(F)(F)F [Example 441]
41	CC(C)(OCc1cc(Cl)cc(-c2cc(NC(=O)[C@H]3CNC(=O)N3)nn2-c2ccc(F)cc2)c1)C(F)(F)F [Example 600]
11	O=C1C[C@H](C(=O)Nc2cc(-c3cccc(COCC(F)(F)F)c3)n(-c3cccc(Cl)c3)n2)CN1 [Example 505]
8.3	O=C1C[C@H](C(=O)Nc2cc(-c3cc(F)cc(COCC(F)(F)F)c3)n(-c3ccccc3Cl)n2)CN1 [Example 510]

Same assay, conditions: CHO-K1, at 0.1 uM

inhibition at 0.1 µM [%]	Compound
48	C[C@@H](OCc1cc(F)cc(-c2cc(NC(=O)[C@@H]3CNC(=O)C3)nn2C2CCOCC2)c1)C(F)(F)F [Example 583]
31	O=C1C[C@H](C(=O)Nc2cc(-c3cccc(CN4CCCC4)c3)n(-c3ccccc3)n2)CN1 [Example 428]
31	CC(C)CS(=O)(=O)c1cccc(-c2cc(NC(=O)[C@@H]3CNC(=O)C3)nn2-c2ccccc2)c1 [Example 553]
40	CCCc1cccc(-c2cc(NC(=O)C3CC[S+]([O-])CC3)nn2-c2ccccc2)c1 (stereo not shown) [Example 317]
48	CCN1C(=O)NC[C@H]1C(=O)Nc1cc(-c2cccc(OC(F)(F)F)c2)n(-c2ccccc2)n1 [Example 296]
26	C[C@@H]1C[C@@H](n2nc(NC(=O)[C@H]3CNC(=O)C3)cc2-c2cccc(OC(F)(F)F)c2)C[C@H](C)O1 [Example 218]

Same assay, conditions: CHO-K1, at 0.3 uM

inhibition at 0.3 µM [%]	Compound
-10	C[C@H]1C(=O)NC[C@@H]1C(=O)Nc1cc(-c2cccc(OC(F)(F)F)c2)n(-c2ccc(Cl)c(F)c2)n1 [Example 180]
